# Measurements: patent publication US7723056B1, “Particles” (The University of Manchester, priority 1997, dated 2010)
# Residues, ends and D or L forms follow the SMILES beside them. *: point of attachment. Myristoyl = CCCCCCCCCCCCCC(=O)*
# Tested on: erythrocytes
# Assay: Haemoglobin assay of erythrocyte lysis
# Assay type: cell-based, rats
# Conditions: rat erythrocytes, no bacteria; haemoglobin at 578 nm; 100% = Triton X100
# Protocol: Fresh rats blood was obtained with sodium heparin added to prevent clotting. Following centrifugation at 600 g for 10 mins and discarding of the supernatant, the pelleted erythrocytes were resuspended and washed three times in isotonic sucrose-glucose phosphate buffer (0.2M sucrose, 0.1M glucose 10 mM sodium phosphate, pH 7.3). Erythrocytes were used on the same day.
# Leakage of haemoglobin from the erythrocytes (50 μl aliquots) was assayed spectrophotometrically at 578 nm against isotonic sucrose glucose phosphate buffer. Percentage lysis of the erythrocytes was established by construction of a standard curve. The supernatant from the centrifuged cells (3.2) represented 0% whereas 100% lysis obtained by incubation with 20 ul 10% v/v Triton X100 for 10 minutes.
# Cultures were centrifuged at 600 g for 10 minutes and the supernatant examined spectrophotometrically as described above to assess erythrocyte lysis. In the presence of particles (but no bacteria) erythrocyte lysis varied between 0.88 and 0.61% with a mean of 0.73%. Addition of M-GALA alone to erythrocytes produced a lysis of 0.31%. No lysis occurred for erythrocytes left in buffer only.
structure (smiles),measurement,value
"CCCCCCCCCCCCCC(=O)N[C@@H](Cc1c[nH]c2ccccc12)C(=O)N[C@@H](CCC(=O)O)C(=O)N[C@@H](C)C(=O)N[C@@H](C)C(=O)N[C@@H](CC(C)C)C(=O)N[C@@H](C)C(=O)N[C@@H](CCC(=O)O)C(=O)N[C@@H](C)C(=O)N[C@@H](CC(C)C)C(=O)N[C@@H](C)C(=O)N[C@@H](CCC(=O)O)C(=O)N[C@@H](C)C(=O)N[C@@H](CC(C)C)C(=O)N[C@@H](C)C(=O)N[C@@H](CCC(=O)O)C(=O)N[C@@H](Cc1c[nH]cn1)C(=O)N[C@@H](CC(C)C)C(=O)N[C@@H](C)C(=O)N[C@@H](CCC(=O)O)C(=O)N[C@@H](C)C(=O)N[C@@H](CC(C)C)C(=O)N[C@@H](C)C(=O)N[C@@H](CCC(=O)O)C(=O)N[C@@H](C)C(=O)N[C@@H](CC(C)C)C(=O)N[C@@H](CCC(=O)O)C(=O)N[C@@H](C)C(=O)N[C@@H](CC(C)C)C(=O)N[C@@H](C)C(=O)N[C@@H](C)C(=O)O [M-GALA, N, Myristic-GALA] (Myristoyl-WEAALAEALAEALAEHLAEALAEALEALAA-OH)",erythrocyte lysis,0.31%
